Entries after “also recorded” stand apart in the source; their conditions may differ.
Tests used:
UCI101 tumor xenografts = test: Tumor and normal organ perfusion by DCE-MRI (gadolinium accumulation); type: in vivo, nude mice; conditions: stilbene 5c 50 mg/kg intraperitoneal, 4 hours after injection, same mice before vs after
Experimental: FIGS. 1A and B. Study of tumor perfusion using accumulation of gadolinium at 30 min after gadolinium injection. (A) T1-weighted images before and after stilbene 5c treatment in the same mouse. Nude mice with established subcutaneously UCI101 tumor xenografts were analyzed with DCE-MRI for tumor perfusion. DCE-MRI images were collected for 30 min after injection of gadolinium (OmniScan) into tail veins. The same mice were studied before and after stilbene 5c treatment to avoid individual variation. The left panels show the T1-weighted images before injection of gadolinium. The right panels show images at 30 min after injection of gadolinium. […] (B) Average of calculated gadolinium concentrations in tumor and muscle before and after stilbene 5c treatment. […]
Nude mice with tumor xenografts were anesthetized with 1% isoflurane and mixed oxygen. […] After the initial rate is established, subsequent MRI studies focused on the sustained increase in gadolinium signals, which also provide qualitative and quantitative information for tissue perfusion. […]
Stilbene 5c was investigated to examine whether it can suppress tumor blood flow and eventually lead to tumor hypoxia. […] After injected with 20 μl of gadolinium (OmniScan) via the tail vein, mice were analyzed with a rapid sequence MRI every minute for total of 30 min. […]

UCI tumor xenograft = test: Microvascular density by anti-CD34 immunohistochemistry and H & E staining of tumor and normal organs; type: in vivo, nude mice
Experimental: FIGS. 2A-B. Stilbene 5c treatment decreases microvascular density in tumor but not in normal organs. Nude mice with UCI tumor xenograft were treated with 10% DMSO or stilbene 5c at 50 mg/kg intraperitoneally. Mice were sacrificed at 4 hours after injection, and various organs and tumor were harvested for fixation and standard hematoxylin and eosin (H & E) staining. Immunohistochemical staining of each section was performed with anti-CD34 antibody to quantify the microvascular density. In the original immunohistochemical stained sections, brown staining indicated a positive signal for CD34 staining. (A) Shown are the black and white pictures in 200× fold magnification. The numbers of positive signals in each CD34 stained picture are counted and are shown in the right lower corner of each panel. (B) The averages and standard deviations of 4 different fields that show the most abundant microvascular density are plotted in a histogram. The sections from kidney cannot be scored due to the fact that all vessels around renal tubules are fused into a large network in the picture.
After mice were sacrificed, major organs and tumors were dissected and fixed in 10% formalin. Tissues were embedded in paraffin and sections were stained with H & E, and with antibody against CD34 for quantification of microvascular density. The scoring of microvascular density was based on the methods described by Weidner et al. by counting the CD34-positive signals in a photo frame of 200× magnification using Nikon ECLIPSE E800M microscope equipped with a Diagnostic Instruments Spot RT CCD camera.
We took tissues that were studied with DCE-MRI to investigate the vascular density of tumor and correlate with the results from DCE-MRI-derived vascular perfusion studies. We particularly examined sections from heart and brain, where the toxicity of colchicine site inhibitors was observed. Tissue sections were stained with standard H & E and anti-CD34 (an endothelial marker) antibody by immunohistochemistry staining. […] There was also no histological difference in tumor either. We then used anti-CD34 staining to score microvascular density in tumor and various normal organs (54, 55). The results are indicated at the right lower corner of each panel except kidney, which cannot be scored due to fusion of the capillary network rather than discrete dots or tubes in appearance.

## COc1cc(/C=C\c2ccc(OC)c(N)c2)cc(OC)c1 [stilbene 5c, cis-3, 4′, 5-trimethoxy-3′-aminostilbene]
UCI101 tumor xenografts; 30 min after gadolinium, 6 mice
  concentration of gadolinium in tumor after stilbene 5c treatment (decreased to, average): 62.8%
UCI101 tumor xenografts
  concentration of gadolinium in muscle after stilbene 5c treatment: no significant change; also recorded: did not change
UCI tumor xenograft; 50 mg/kg intraperitoneally, 4 hours after injection, vs 10% DMSO
  decrease of tumor vascular density (CD34): ~4 fold
UCI tumor xenograft; after stilbene 5c treatment
  H & E staining changes in major organs: did not show any significant changes
  microvascular density of tumor decreased to (CD34): nearly one fourth
UCI tumor xenograft; after stilbene 5c treatment 50 mg/kg intraperitoneally
  microvascular density of normal organs (heart, liver, kidney, brain): does not change

Source: patent US10159676B2, “Induction of tumor hypoxia for cancer therapy” (Virginia Commonwealth University, priority 2008, dated 2018)
